In this test the target is T1, ASCT2 (Homo sapiens, UniProt Q15758).
T1 construct: gene SLC1A5
T1 sequence (Q15758 1-541): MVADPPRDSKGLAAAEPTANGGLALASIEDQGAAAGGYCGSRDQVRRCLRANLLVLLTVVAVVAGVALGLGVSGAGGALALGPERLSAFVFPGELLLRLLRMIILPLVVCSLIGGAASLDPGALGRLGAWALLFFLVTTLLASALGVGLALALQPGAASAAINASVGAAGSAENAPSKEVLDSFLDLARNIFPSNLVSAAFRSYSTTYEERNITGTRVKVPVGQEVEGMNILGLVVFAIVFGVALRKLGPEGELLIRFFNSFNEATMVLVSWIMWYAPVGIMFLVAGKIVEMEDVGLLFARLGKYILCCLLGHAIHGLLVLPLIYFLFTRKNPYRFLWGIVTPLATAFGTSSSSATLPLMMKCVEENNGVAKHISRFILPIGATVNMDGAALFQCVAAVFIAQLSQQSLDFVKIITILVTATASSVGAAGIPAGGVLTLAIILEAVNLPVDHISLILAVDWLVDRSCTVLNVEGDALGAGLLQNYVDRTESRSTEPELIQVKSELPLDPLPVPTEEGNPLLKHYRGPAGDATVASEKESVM
As to the kind of experiment: SPR (Biacore T200), purified human ASCT2. In kind it is binding. (In SPR one partner is held on a chip, and binding of the other changes the refractive index at the surface.)

Take `N#Cc1ccnc(N2C(=O)CC[C@H]2C(=O)N(c2cncc(F)c2)[C@H](C(=O)NC2CC(F)(F)C2)c2ccccc2Cl)c1` [Ag120]: binding was put at a Kd of 5.91 µM.

The values above are taken from paper PMC8996072, “Ag120-Mediated Inhibition of ASCT2-Dependent Glutamine Transport has an Anti-Tumor Effect on Colorectal Cancer Cells” (Frontiers in Pharmacology, 2022).
